# In US11884673B2, “Modulators of ion channel receptors and uses thereof” (BIONOMICS LIMITED, priority 2018, dated 2024):
# Target: T1, hNav1.7 (Homo sapiens, UniProt Q15858)
# T1 construct: expressed in transfected cells
# Assay: hNav1.7 inactivated state (SIS) automated patch clamp electrophysiology (Patchliner, whole-cell)
# Format: cell-based
# Conditions: inactivated state protocol, hNav1.7 stably expressed in human embryonic kidney cells; for IC50: estimated eIC50 from 2-3 drug concentrations; for inhibition at 10 µM: Assay Conc. 10 uM, read-out: hNav1.7 SIS (% inh)
# Description: hNav1.7, hNav1.2, hNav1.3, hNav1.4, hNav1.5, hNav1.6 were stably expressed in human embryonic kidney cells and kept under constant antibiotic selection. For in vitro assays, cells were maintained in appropriate growth medium at 37° C. and 5% CO2 in a humidified incubator.
# Nav1.x expressing cells plated in T-25 flasks for 2-3 days prior to use and grown to 70-85% confluence were briefly trypsinized to obtain a single cell suspension of ˜2-3×10^6 cells/ml. All electrophysiological recordings were performed at ambient temperature (21-23° C.) using automated patch clamp (Patchliner, Nanion Technologies GmbH) in the whole-cell configuration using the following solutions: Internal solution contained (in mM): CsCl (50), NaCl (10), CsF (60), EGTA (20), HEPES (10), pH 7.2 KOH, 285 mOsmol·Kg^−1. External (bath) solution contained (in mM): NaCl (140), KCl (4), MgCl2 (1), CaCl2) (2) D-Glucose monohydrate (5), HEPES (10), pH 7.4 NaOH, 298 mOsmol·kg^−1.
# The following voltage protocols were used to assess different Nav1.x channel states:
# For each Nav1.x channel, a steady state inactivation curve was obtained in order to calculate the voltage resulting in 50% channel inactivation (V0.5inact). A 2 pulse protocol was then employed in which cells held at a voltage corresponding to 20 mV more negative to V0.5 inact were depolarised to −10 mV for 20 ms before returning to the previous holding voltage. This test pulse constituted P1 and represents 100% available (non-inactivated) Nav1.x channels. The same cell was then depolarised for 8 s to a voltage corresponding to 7 mV more positive than V0.5inact in order to cause channel inactivation. Following a brief (2 ms) hyperpolarising voltage step to −120 mV (to reset the activation gate), cells were again subjected to a depolarising test pulse (P2) to −10 mV for 20 ms before returning to the holding potential. Each sequence was repeated 6× at 30 s intervals. Using this protocol, control P2 current amplitudes (representing the % channels available following 8 s inactivation) was ˜50% of control P1 current amplitude. 6 repetitions of this recording sequence were made in the control bath solution and then again 2 minutes after compound addition and thereafter at increasing compound concentrations. % inhibition was calculated by (1−(P2drug at repetition 6/P2control at repetition 6))*100. Data were either presented as % block by a single concentration of drug or an estimated eIC50 determined from 2-3 drug concentrations which was determined by fitting data with a sigmoidal dose response curve (variable slope) using GraphPad Prism software (Version 6.0).
# All compounds were dissolved in DMSO to 20 mM initially. Subsequent dilutions in DMSO were made to achieve 200× final bath concentrations. DMSO compound stocks were finally diluted 1/200 in bath solution just prior to assay resulting in a final DMSO concentration of 0.5% which was not found to affect control current amplitude.
# T1 sequence (Q15858 whole entry): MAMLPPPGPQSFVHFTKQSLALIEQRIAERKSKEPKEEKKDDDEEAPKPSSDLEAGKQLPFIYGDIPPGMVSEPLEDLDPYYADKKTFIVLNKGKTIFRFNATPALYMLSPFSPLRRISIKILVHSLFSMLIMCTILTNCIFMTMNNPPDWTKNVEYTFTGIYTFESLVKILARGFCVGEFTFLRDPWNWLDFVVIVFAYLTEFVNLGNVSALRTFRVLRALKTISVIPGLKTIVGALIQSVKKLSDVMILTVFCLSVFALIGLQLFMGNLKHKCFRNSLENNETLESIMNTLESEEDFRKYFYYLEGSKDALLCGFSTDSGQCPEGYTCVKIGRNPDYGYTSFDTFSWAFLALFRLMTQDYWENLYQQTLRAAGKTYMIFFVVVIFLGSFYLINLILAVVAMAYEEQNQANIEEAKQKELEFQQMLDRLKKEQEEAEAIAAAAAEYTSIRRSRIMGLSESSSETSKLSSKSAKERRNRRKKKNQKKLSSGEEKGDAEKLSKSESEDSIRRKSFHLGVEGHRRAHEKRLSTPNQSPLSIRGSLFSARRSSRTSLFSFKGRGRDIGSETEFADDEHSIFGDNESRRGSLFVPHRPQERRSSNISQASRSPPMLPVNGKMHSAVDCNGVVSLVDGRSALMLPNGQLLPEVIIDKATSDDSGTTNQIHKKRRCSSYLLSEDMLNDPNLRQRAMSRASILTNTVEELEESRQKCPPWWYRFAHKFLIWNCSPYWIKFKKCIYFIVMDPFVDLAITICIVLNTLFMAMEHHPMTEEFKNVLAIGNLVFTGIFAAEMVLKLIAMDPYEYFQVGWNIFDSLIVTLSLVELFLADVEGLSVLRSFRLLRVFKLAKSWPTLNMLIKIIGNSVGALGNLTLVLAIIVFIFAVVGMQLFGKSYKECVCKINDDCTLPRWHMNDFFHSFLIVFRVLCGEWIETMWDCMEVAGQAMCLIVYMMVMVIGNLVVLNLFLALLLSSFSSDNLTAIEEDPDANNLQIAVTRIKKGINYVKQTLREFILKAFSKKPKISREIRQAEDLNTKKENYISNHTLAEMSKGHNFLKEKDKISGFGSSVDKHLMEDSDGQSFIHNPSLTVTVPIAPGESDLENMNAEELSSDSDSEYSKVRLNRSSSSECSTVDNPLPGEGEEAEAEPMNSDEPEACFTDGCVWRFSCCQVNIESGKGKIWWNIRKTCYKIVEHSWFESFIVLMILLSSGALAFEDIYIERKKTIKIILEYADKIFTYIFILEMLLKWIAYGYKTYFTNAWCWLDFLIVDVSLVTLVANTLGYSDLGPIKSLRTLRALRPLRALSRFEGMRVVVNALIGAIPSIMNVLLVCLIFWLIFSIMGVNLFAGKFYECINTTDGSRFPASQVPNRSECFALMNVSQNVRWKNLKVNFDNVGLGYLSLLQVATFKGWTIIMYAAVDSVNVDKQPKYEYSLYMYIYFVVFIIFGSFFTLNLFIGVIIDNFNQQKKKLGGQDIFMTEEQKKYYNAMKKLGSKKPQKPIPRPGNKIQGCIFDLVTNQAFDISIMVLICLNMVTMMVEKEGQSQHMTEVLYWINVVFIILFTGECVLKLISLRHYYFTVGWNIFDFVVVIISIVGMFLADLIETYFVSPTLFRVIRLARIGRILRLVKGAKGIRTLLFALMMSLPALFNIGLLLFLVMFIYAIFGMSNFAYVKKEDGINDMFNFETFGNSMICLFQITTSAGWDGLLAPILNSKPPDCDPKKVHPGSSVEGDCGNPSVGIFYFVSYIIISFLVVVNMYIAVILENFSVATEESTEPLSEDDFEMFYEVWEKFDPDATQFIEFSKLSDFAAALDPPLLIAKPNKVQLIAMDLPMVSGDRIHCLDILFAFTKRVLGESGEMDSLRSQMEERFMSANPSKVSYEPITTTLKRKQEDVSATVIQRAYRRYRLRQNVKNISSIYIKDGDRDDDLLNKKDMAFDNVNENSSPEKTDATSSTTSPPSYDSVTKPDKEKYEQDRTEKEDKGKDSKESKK
Structure (SMILES),IC50,inhibition at 10 µM
O=C(NCc1cccc(OCc2ccccc2F)c1)c1nccn2ccnc12 [Number 2],1.3 µM,
O=C(NCc1cc(OCc2ccccc2F)ccc1F)c1ccn2ccnc2c1 [Number 5],1.3 µM,
O=C(NCc1cccc(OCc2ccccc2F)c1)c1ccn2ccnc2c1 [Number 9],8.9 µM,
CC(C)(NC(=O)c1ccn2ccnc2c1)c1cccc(OCc2ccccc2F)c1 [Number 11],,45%
O=C(NCc1cc(OCc2ccccc2F)ccc1F)c1nccn2ccnc12 [Number 48],,100%
O=C(NCc1cccc(OCc2ccccc2F)c1)c1cccc2ccnn12 [Number 50],,80%
CC(C)(Oc1cccc(CNC(=O)c2cccn3ccnc23)c1)c1ccccc1F [Number 52],,83%
COC[C@@H](C)N(Cc1cccc(OCc2ccccc2F)c1)C(=O)c1cn2ccccc2n1 [Number 53],,74%
COC[C@H](C)N(Cc1cccc(OCc2ccccc2F)c1)C(=O)c1cn2ccccc2n1 [Number 54],,55%
Cn1ccc(C(=O)NCc2cc(OCc3ccccc3F)ccc2F)cc1=O [Number 55],,49%
O=C(NCc1cc(OCc2ccccc2F)ccc1F)c1cn2ccccc2n1 [Number 56],2.2 µM,
Cn1cccc(C(=O)NCc2cccc(OCc3ccccc3F)c2)c1=O [Number 57],,53%
O=C(NCc1cc(OCc2ccccc2F)ccc1F)c1cn2cccnc2n1 [Number 59],,42%
O=C(NCc1cccc(OCc2ccccc2F)c1)c1cccc2cncn12 [Number 60],,49%
CN(Cc1cccc(OCc2ccccc2F)c1)C(=O)c1cn2ccccc2n1 [Number 61],1.6 µM,
O=C(NCc1cccc(OCc2ccccc2F)c1)c1cn2ncccc2n1 [Number 62],,50%
O=C(NCc1cccc(OCc2ccccc2F)c1)c1cn2cccnc2n1 [Number 63],,42%
O=C(NCc1cccc(OCc2ccccc2F)c1)c1cccc2ncnn12 [Number 64],,48%
O=C(NCc1cc(OCc2ccccc2F)ccc1F)c1cccc2ncnn12 [Number 65],10 µM,

Structure (SMILES),IC50,inhibition at 10 µM
Cn1ccc(C(=O)NCc2cccc(OCc3ccccc3F)c2)cc1=O [Number 66],,30%
O=C(NCc1cccc(OCc2ccccc2F)c1)c1cn2ccncc2n1 [Number 67],,34%
O=C(NCc1cc(OCc2ccccc2F)ccc1F)c1cn2ncccc2n1 [Number 68],,53%
O=C(NCc1cccc(OCc2ccccc2F)c1)c1cc2cccn2cn1 [Number 69],,92%
O=C(NCc1cccc(OCc2ccccc2F)c1)c1ccn2cnnc2c1 [Number 70],,66%
Cc1cn2ccc(C(=O)NCc3cccc(OCc4ccccc4F)c3)cc2n1 [Number 71],,66%
Cc1cn2ccc(C(=O)NCc3cc(OCc4ccccc4F)ccc3F)cc2n1 [Number 72],,100%
O=C(NCc1cccc(OCc2ccccc2F)c1)c1cnc2ccccn12 [Number 73],,47%
Cn1cc(CC(=O)NCc2cccc(OCc3ccccc3F)c2)c2ccccc21 [Number 75],,74%
O=C(Cc1cn2ccccc2n1)NCc1cccc(OCc2ccccc2F)c1 [Number 76],,44%
O=C(NCc1cccc(OCc2ccccc2F)c1)c1cccn2ncnc12 [Number 77],,70%
O=C(NCc1cccc(OCc2ccccc2F)c1)c1ccn2ncnc2c1 [Number 80],,30%
O=C(NCc1cc(OCc2ccccc2F)ccc1F)c1ccn2ncnc2c1 [Number 82],,42%
Cc1cnc2cc(C(=O)NCc3cccc(OCc4ccccc4F)c3)ccn12 [Number 83],,59%
O=C(NCc1cccc(OCc2ccccc2F)c1)c1ccc2cncn2c1 [Number 84],,45%
O=C(NCc1cc(OCc2ccccc2F)ccc1F)c1ccc2cncn2c1 [Number 85],,55%
O=C(NCc1cccc(OCc2ccccc2F)c1)c1cccn2cncc12 [Number 86],,92%
O=C(NCc1cccc(OCc2ccccc2F)c1)c1ccc2nncn2c1 [Number 88],,49%

# Results, then the compound that gave them:
IC50,inhibition at 10 µM,Structure (SMILES)
0.41 µM,,O=C(NCc1cc(OCC2CCCCC2)ccc1F)c1ccn2ccnc2c1 [Number 1]
2.7 µM,,O=C(NCc1cccc(OCc2ccccc2F)c1)c1cccn2ccnc12 [Number 3]
1.1 µM,,O=C(NCc1cc(OCc2ccccc2F)ccc1F)c1cccn2cnnc12 [Number 4]
0.13 µM,,O=C(NCc1cc(OCC2CCCCC2)ccc1F)c1cccn2cnnc12 [Number 6]
4.8 µM,,CC(C)(NC(=O)c1cccn2cnnc12)c1cccc(OCC2CCCCC2)c1 [Number 7]
0.91 µM,,O=C(NCc1cccc(OCC2CCCCC2)c1)c1cccn2cnnc12 [Number 8]
3.3 µM,,O=C(NCc1cccc(OCc2ccccc2F)c1)c1cccn2cnnc12 [Number 10]
0.51 µM,,CC(C)(NC(=O)c1ccn2ccnc2c1)c1cccc(OCC2CCCCC2)c1 [Number 12]
,38%,O=C(NCc1cc(OCc2ccccc2F)ccc1F)c1cccc2nncn12 [Number 49]
,36%,CC(C)(Oc1cccc(CNC(=O)c2cccn3cnnc23)c1)c1ccccc1F [Number 51]
,52%,Cn1cccc(C(=O)NCc2cc(OCc3ccccc3F)ccc2F)c1=O [Number 58]
,58%,O=C(NCc1cc(OCc2ccccc2F)ccc1F)c1ccn2cnnc2c1 [Number 74]
,83%,O=C(NCc1cc(OCc2ccccc2F)ccc1F)c1cccn2ncnc12 [Number 78]
,42%,O=C(NCc1cccc(OCc2ccccc2F)c1)c1cccn2nnnc12 [Number 79]
,88%,O=C(NCc1cc(OCc2ccccc2F)ccc1F)c1cccn2nnnc12 [Number 81]
,66%,O=C(NCc1cc(OCc2ccccc2F)ccc1F)c1cccn2cncc12 [Number 87]
,99%,O=C(NCc1cc(OCc2ccccc2F)ccc1F)c1cccn2ccnc12 [Number 89]
